Where two headings read alike, the source gives them in different places.
Tests used:
5α-reductase type 1 = settings: Table 1; read-out: IC50 for DHT inhibition, epithelial cells (type 1); cited from earlier work
5α-reductase type 2 = settings: cited from earlier work
Type 1 5α-reductase [1] = settings: Table 2, cited from earlier work; for IC50: read-out: IC50 for DHT, Type 1 5α-reductase
5-lipoxygenase = target: T1, 5-lipoxygenase (Rattus norvegicus, UniProt P12527); experiment: biochemical; settings: for 5-Lipo activity: screened at 3×10^-5 (30 μM)
T1 sequence (P12527 1-673): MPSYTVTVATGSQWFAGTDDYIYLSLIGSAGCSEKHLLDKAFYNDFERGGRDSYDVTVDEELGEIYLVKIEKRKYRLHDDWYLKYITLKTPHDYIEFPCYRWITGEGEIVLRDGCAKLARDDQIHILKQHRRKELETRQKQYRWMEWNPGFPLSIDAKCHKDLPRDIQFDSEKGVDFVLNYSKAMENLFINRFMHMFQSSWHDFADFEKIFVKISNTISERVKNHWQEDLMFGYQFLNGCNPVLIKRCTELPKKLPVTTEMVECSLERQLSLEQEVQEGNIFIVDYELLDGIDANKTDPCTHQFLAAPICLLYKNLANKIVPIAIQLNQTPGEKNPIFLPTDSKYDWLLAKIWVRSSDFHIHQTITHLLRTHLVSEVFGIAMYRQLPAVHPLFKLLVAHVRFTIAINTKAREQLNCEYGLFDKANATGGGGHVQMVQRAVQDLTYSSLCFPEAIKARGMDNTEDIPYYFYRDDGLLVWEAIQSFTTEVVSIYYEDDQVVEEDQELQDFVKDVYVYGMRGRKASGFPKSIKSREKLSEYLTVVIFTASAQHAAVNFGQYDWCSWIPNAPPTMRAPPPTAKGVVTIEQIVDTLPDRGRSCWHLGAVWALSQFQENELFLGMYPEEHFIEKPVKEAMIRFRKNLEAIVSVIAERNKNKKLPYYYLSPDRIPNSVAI
Procedure: The procedure was as follows. 5-lipoxygenase assays were run using a crude enzyme preparation from rat basophilic leukemia cells (RBL-1). Test compounds were pre-incubated with the enzyme for 5 minutes at room temperature and the reaction was initiated by addition of substrate (arachidonic acid). Following an 8 minute incubation at room temperature, the reaction was terminated by addition of citric acid, and levels of 5-HETE were determined by 5-HETE radioimmunoassay (RIA).
Compounds and fractions were screened at an initial concentration of 3×10^-5.

Cyclooxygenase-1 = target: T2, Cyclooxygenase-1 (Ovis aries, UniProt P05979); experiment: biochemical; type: biochemical, ram; settings: for Cox1 activity: screened at 3×10^-4 M
T2 construct: Cyclooxygenase-1 (from ram seminal vesicles); from tissue; host or cells: ram seminal vesicles; assay by Panlabs
T2 sequence (P05979 25-600): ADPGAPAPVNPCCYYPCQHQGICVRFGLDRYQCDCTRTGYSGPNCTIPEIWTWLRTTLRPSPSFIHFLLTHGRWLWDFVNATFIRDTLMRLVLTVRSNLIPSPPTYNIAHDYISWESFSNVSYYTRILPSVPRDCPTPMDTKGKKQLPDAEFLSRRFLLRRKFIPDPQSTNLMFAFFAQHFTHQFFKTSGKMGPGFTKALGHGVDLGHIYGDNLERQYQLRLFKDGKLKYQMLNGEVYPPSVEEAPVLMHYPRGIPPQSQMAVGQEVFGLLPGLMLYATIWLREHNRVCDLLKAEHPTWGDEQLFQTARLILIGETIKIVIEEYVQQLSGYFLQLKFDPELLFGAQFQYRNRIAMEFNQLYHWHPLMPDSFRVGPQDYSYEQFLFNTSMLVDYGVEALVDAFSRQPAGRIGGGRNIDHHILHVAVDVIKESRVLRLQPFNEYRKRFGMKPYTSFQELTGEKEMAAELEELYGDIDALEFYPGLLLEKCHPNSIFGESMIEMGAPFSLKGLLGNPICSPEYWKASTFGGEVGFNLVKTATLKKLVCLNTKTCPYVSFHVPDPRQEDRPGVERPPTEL
Procedure: The reaction was initiated by addition of arachidonic acid (100 mM) and terminated after 20 minutes incubation at 37° C. by addition of trichloroacetic acid (TCA).

Cyclooxygenase-2 = target: T3, Cyclooxygenase-2 (Ovis aries, UniProt P79208); experiment: biochemical; type: biochemical, sheep
T3 construct: Cyclooxygenase-2 (from sheep placenta); from tissue; host or cells: sheep placenta; assay by Panlabs
T3 sequence (P79208 17-603): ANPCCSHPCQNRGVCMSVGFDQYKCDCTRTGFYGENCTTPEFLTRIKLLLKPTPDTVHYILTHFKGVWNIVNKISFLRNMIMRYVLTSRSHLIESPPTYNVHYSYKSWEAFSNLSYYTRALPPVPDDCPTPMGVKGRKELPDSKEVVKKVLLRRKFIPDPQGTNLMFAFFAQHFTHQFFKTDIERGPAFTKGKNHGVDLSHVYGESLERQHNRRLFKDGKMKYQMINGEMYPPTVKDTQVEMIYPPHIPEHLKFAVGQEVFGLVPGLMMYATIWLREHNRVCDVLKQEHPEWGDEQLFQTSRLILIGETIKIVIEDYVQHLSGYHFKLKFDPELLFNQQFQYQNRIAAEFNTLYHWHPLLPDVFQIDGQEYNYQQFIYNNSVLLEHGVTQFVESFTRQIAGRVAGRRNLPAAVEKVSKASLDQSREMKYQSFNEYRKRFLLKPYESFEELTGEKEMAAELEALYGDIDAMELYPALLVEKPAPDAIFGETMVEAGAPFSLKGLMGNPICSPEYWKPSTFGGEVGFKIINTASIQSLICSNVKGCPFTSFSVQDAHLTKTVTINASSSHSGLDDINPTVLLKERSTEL
Procedure: The reaction is initiated by addition of arachidonic acid (100 mM) and terminated after 20 minutes incubation at 37° C. by addition of TCA.

5α-reductase [2] = settings: cited from earlier work
Type 1 5α-reductase [3] = settings: cited from earlier work
Type 2 5α-reductase = settings: cited from earlier work
5α-reductase [4] = settings: rat, in vivo; cited from earlier work
5α-reductase [5] = settings: in vivo; cited from earlier work
[6] = cited from earlier work; for time to degradation in oil preparations: exposed to light, "in as little as"
[7] = Table 1, read-out: IC50 for DHT inhibition, stroma (type 2)
[8] = fibroblasts, read-out: IC50, inhibition of DHT formation in fibroblasts
[9] = Table 8, read-out: 5 Lipoxygenase IC50 (Table 8)
[10] = Table 8, read-out: Cyclooxygenase-1 IC50 (Table 8)
[11] = Table 8, read-out: Cyclooxygenase-2 IC50 (Table 8)

Q: Which results are given for CCN(CC)C(=O)[C@H]1CC[C@H]2[C@@H]3CC[C@H]4N(C)C(=O)CC[C@]4(C)[C@H]3CC[C@]12C [4-MA]?
A: IC50 (5α-reductase type 1): 20 nM; IC50 (5α-reductase type 2; [7]): 50 nM; IC50 (5α-reductase type 2; [8]): 50 nM; Inhibition type (Type 1 5α-reductase [1]): Competitive; IC50 (Type 1 5α-reductase [1]): 10 nM

Q: Which IC50 (5-lipoxygenase; [9]) does the source give for CCCCCCCCCCCC(=O)OCC [Ethyl laurate] here?
A: > 30 µM

Q: And the 5-Lipo activity (5-lipoxygenase)?
A: Negative

Q: What about the IC50 (Cyclooxygenase-1; [10]) of the same compound?
A: > 300 µM

Q: And the Cox1 activity (Cyclooxygenase-1)?
A: Negative

Q: And the Cox2 activity (Cyclooxygenase-2)?
A: Negative

Q: What about the IC50 (Cyclooxygenase-2; [11]) of the same compound?
A: > 300 µM

Q: What about the 5α-reductase inhibitory activity (5α-reductase [2]) of the same compound?
A: markedly less effective

Q: What does the source list for CC(C)(C)NC(=O)[C@H]1CC[C@H]2[C@@H]3CC[C@H]4NC(=O)C=C[C@]4(C)[C@H]3CC[C@]12C [Finasteride]?
A: IC50 (5α-reductase type 1): 400 nM; IC50 (5α-reductase type 2; [7]): 30 nM; IC50 (5α-reductase type 2; [8]): 30 nM; Inhibition type (Type 1 5α-reductase [1]): Competitive; IC50 (Type 1 5α-reductase [1]): 500 nM; type of inhibition (Type 1 5α-reductase [3]): competitive; IC50 (Type 1 5α-reductase [3]; read-out: inhibition, IC50): 400 nM; Ki (Type 1 5α-reductase [3]; read-out: inhibition, Ki): 108 nM; type of inhibition (Type 2 5α-reductase): (non)competitive; IC50 (Type 2 5α-reductase; read-out: inhibition, IC50): 10.7 nM; Ki (Type 2 5α-reductase; read-out: inhibition, Ki): 7.3 nM; inhibition of 5α-reductase in castrated rats (5α-reductase [4]): inhibits 5α-reductase; decrease in serum DHT levels (5α-reductase [5]): decrease in serum DHT levels

Q: With CCCCCCCCCCCC(=O)O [Lauric Acid] as the compound, how does the IC50 (5-lipoxygenase; [9]) read?
A: > 30 µM

Q: What about the 5-Lipo activity (5-lipoxygenase) of the same compound?
A: Negative

Q: And the IC50 (Cyclooxygenase-1; [10])?
A: > 300 µM

Q: And the Cox1 activity (Cyclooxygenase-1)?
A: Negative

Q: What about the Cox2 activity (Cyclooxygenase-2) of the same compound?
A: Negative

Q: What about the IC50 (Cyclooxygenase-2; [11]) of the same compound?
A: > 300 µM

Q: What about the 5α-reductase inhibitory activity (5α-reductase [2]) of the same compound?
A: particularly potent inhibitors

Q: What does the source list for CCCCC/C=C\C/C=C\CCCCCCCC(=O)O [Linoleic Acid]?
A: IC50 (5-lipoxygenase): > 30 µM; 5-Lipo activity (5-lipoxygenase): Negative; IC50 (Cyclooxygenase-1): > 300 µM; Cox1 activity (Cyclooxygenase-1): Negative; Cox2 activity (Cyclooxygenase-2): Negative; IC50 (Cyclooxygenase-2): > 300 µM; 5α-reductase inhibitory activity (5α-reductase [2]): particularly potent inhibitors

Q: For CC/C=C\C/C=C\C/C=C\CCCCCCCC(=O)O [Linolenic Acid], which IC50 (5-lipoxygenase) is on record?
A: 12 µM

Q: And the Cox2 activity (Cyclooxygenase-2)?
A: Negative

Q: And the IC50 (Cyclooxygenase-2; [11])?
A: > 300 µM

Q: What about the 5α-reductase inhibitory activity (5α-reductase [2]) of the same compound?
A: particularly potent inhibitors

Q: For CCC(C)C(=O)[C@]12C(=O)[C@](CC=C(C)C)(C[C@H](CC=C(C)C)[C@@]1(C)CCC=C(C)C)C(=O)C(CC=C(C)C)=C2O (stereo partly shown) [adhyperforin], which “time to degradation in oil preparations” value [6] is on record?
A: 14 days

Q: With CC(C)=CCCC1(C)C(CC=C(C)C)CC2(CC=C(C)C)C(=O)C(CC=C(C)C)=C(O)C1(C(=O)C(C)C)C2=O (stereo not shown) [hyperforin] as the compound, how does the “time to degradation in oil preparations” value [6] read?
A: 14 days

Q: With Cc1cc(O)c2c(=O)c3c(O)cc(O)c4c5c(O)cc(O)c6c(=O)c7c(O)cc(C)c8c1c2c(c34)c(c78)c65 [hypericin] as the compound, how does the “hypericin content on storage” value ([6]; 60-140 °C, more than six weeks, powdered extract, tablet and juice) read?
A: drop significantly
